Here are results for 2 molecules from patent publication US20080146555A1, “Uses of Kinase Inhibitors and Compositions Thereof” (GPC Biotech, Inc, priority 2004, published 2008).

One assay addresses Cdk7 (Homo sapiens, UniProt P50613). In words: Cdk7 inhibition. The format is biochemical. An excerpt:
Further inhibition results for subject compounds of the invention against other CDKs and further kinases are shown in Table 5, Table II and described in Example 6.
Table 3, Table 4, Table 5 and Table II show the results obtained for inhibition of a broad range of such kinases for subject compounds of the invention.

A further assay deals with DNA replication. The experiment in a line: Inhibition of DNA replication. Type of assay: cell-based. As to conditions: 24 hour incubation.
In a further assay the target is T1, Yes (Homo sapiens, UniProt P07947).
T1 construct: purchased Upstate 14-478
T1 sequence (P07947 whole entry): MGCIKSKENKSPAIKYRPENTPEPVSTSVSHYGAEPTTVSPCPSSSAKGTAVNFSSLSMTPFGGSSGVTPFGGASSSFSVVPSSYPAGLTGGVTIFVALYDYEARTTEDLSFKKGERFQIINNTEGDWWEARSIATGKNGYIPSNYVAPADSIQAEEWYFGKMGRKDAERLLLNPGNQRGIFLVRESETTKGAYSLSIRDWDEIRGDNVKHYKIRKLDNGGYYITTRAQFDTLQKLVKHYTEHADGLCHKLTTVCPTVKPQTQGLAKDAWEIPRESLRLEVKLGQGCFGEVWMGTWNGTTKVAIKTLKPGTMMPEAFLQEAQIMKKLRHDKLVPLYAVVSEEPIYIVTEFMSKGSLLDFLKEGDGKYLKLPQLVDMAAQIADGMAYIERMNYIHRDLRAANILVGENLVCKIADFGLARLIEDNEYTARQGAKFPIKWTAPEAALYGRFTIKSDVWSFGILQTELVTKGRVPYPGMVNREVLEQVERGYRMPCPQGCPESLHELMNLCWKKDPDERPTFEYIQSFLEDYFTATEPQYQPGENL
In words: Yes kinase assay. Type of assay: biochemical. How it is done:
• 1. 2.5× Reaction Buffer: 20 mM MOPS, 0.5 mM EDTA. • 2. Enzyme Dilution Buffer (EDB): 20 mM MOPS pH 7.0, 1 mM EDTA, 0.01% Brij-35, 5% glycerol, 0.1% β-mercaptoethanol, 1 mg/ml BSA. • 3. Yes, active: Dilute to 0.4 ng-4 ng/μl with EDB. Use 2.5 μl per assay point. • 4. Poly(Glu-4-Tyr) substrate: Prepare a 1 mg/ml stock solution. Use 2.5 μl per assay point for a final concentration of 0.1 mg/ml per assay point. • 5. [γ-^32P]ATP: Stock 1 mCi/100 μl (3000 Ci/mmol, obtained from PerkinElmer, Cat. # BLU002A). Make 10 μl aliquots (100 μCi/vial). Before starting the assay, dilute an aliquot to 1 μCi/μl with 90 μl of 75 mM MgCl2 and 500 μM cold ATP in 20 mM MOPS, pH 7.2, 25 mM β-glycerol phosphate, 5 mM EGTA, 1 mM sodium orthovanadate, 1 mM dithiothreitol.
• 1. Add 10 μl of 2.5× Reaction Buffer per assay. • 2. Add 2.5 μl of Poly(Glu-4-Tyr) substrate (0.1 mg/ml). • 3. Add 2.5 μl of Yes, active (1 ng-10 ng). • 4. Add […] of the diluted [γ-^32P]ATP solution. • 5. Incubate for 10 minutes at 30° C. • 6. Transfer a 20 μl aliquot onto the center of a 2 cm×2 cm P81 paper. • 7. Wash the assay squares three times for 5 minutes with 0.75% phosphoric acid. • 8. Wash the assay squares once for 5 minutes with acetone. • 9. Transfer the assay squares to vial and add 5 ml scintillation cocktail. • 10. Read in scintillation counter. Compare cpm of enzyme samples to cpm of control samples that contain background control.

A further assay addresses T2, Fes (Homo sapiens, UniProt P07332).
T2 construct: purchased Upstate 14-473
The experiment in a line: Fes kinase assay. Type of assay: biochemical. How it is done: • 1. 2.5× Reaction Buffer: 50 mM MOPS, pH 7.0, 2.5 mM EDTA. • 2. Poly(Glu4-Tyr) (4:1): Prepare a 1 mg/ml stock in sterile distilled water. Add 2.5 μl per assay point for a final concentration of 0.1 mg/ml. • 3. Enzyme Dilution Buffer (EDB): 20 mM MOPS, pH 7.0, 1 mM EDTA, 5% glycerol, 0.01% Brij-35, 0.1% β-mercaptoethanol, 1 mg/ml BSA. • 4. Fes/Fps, active: Dilute to 4-40 ng/μl with EDB. Use 2.5 μl per assay. • 5. Magnesium/ATP Cocktail (Catalog #20-113): 75 mM MgCl2 and 500 μM ATP in 20 mM MOPS, pH 7.2, 25 mM β-glycerol phosphate, 5 mM EGTA, 1 mM sodium orthovanadate, 1 mM dithiothreitol. • 6. [γ-^32P]ATP: Stock 1 mCi/100 μl (3000 Ci/mmol, obtained from PerkinElmer, Catalog #LU002A). Make 10 μl aliquots (100 μCi/vial). Before starting the assay, dilute the Magnesium/ATP Cocktail 1:1 with sterile, distilled water. Then dilute an aliquot of [γ-^32P]ATP to 1 μCi/μl with 90 μl of the diluted Magnesium/ATP Cocktail. Use 10 μl per assay point for a final ATP concentration of 100 μM per assay point.
• 1. Add 10 μl of 2.5× Reaction Buffer per assay. • 3. Add 2.5 μl of Fes/Fps, active (10-100 ng). • 4. Add 10 μl of the diluted [γ-^32P]ATP mixture. • 5. Incubate for 10 minutes at 30° C. • 6. Spot 20 μl onto the center of a 2 cm×2 cm […]. • 7. Wash the assay squares three times for 5 minutes with 0.75% phosphoric acid. • 8. Wash the assay squares once for 5 minutes with acetone. • 9. Transfer the assay squares to vials and add 5 ml scintillation cocktail. • 10. Read in scintillation counter. Compare cpm of enzyme samples to cpm of control samples.

Another assay deals with T3, GSK3β (Homo sapiens, UniProt P49841).
T3 construct: purchased Upstate 14-306
T3 sequence (P49841 whole entry): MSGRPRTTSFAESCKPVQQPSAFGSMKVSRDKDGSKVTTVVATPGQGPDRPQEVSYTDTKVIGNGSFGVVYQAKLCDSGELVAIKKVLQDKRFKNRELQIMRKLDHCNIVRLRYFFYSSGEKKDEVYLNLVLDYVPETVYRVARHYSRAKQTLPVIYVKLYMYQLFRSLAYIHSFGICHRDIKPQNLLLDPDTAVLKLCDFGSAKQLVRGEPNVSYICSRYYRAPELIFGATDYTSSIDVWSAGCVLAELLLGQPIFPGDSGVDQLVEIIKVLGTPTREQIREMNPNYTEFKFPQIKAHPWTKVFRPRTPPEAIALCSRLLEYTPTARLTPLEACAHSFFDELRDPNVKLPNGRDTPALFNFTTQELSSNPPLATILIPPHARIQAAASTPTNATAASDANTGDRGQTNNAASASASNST
The experiment in a line: GSK3β kinase assay. The format is biochemical. The method, then: • 1. Reaction Buffer: 8 mM MOPS, pH 7.0, 0.2 mM EDTA, 110 mM magnesium acetate. • 2. GSK3β, active: 5-40 ng per assay point. Dilute to 0.5-4 ng/μl in Reaction Buffer containing 0.03% Brij-35. • 3. Phospho-Glycogen Synthase Peptide-2 (Catalog #12-241): Prepare a 250 μM stock. Use 10 μl per assay point for a final assay concentration of 62.5 μM per assay point. • 4. [γ-^32P]ATP: Stock 1 mCi/100 μl (3000 Ci/mmol, obtained from Perkin Elmer, Cat. # BLU002A). Make 10 μl aliquots (100 μCi/vial). Before starting the assay, dilute an aliquot to 1 μCi/μl with 90 μl of 75 mM magnesium chloride and 500 μM unlabeled ATP in 20 mM MOPS, pH 7.2, 25 mM β-glycerol phosphate, 5 mM EGTA, 1 mM sodium orthovanadate, 1 mM dithiothreitol.
• 1. Add 10 μl of Reaction Buffer per assay. • 2. Add 10 μl of substrate peptide [final assay concentration of 62.5 μM]. • 3. Add 10 μl of GSK3β, active [5-40 ng per assay]. • 4. Add 10 μl of the diluted [^32P]ATP mixture. • 5. Incubate for 30 minutes at 30° C. • 6. Spot 25 μl onto the center of a 2 cm×2 cm P81 paper square. • 7. Wash the assay squares five times with 0.75% phosphoric acid. • 8. Wash the assay squares once with acetone. • 9. Transfer the assay squares to vial and add 5 ml scintillation cocktail. • 10. Read in scintillation counter. Compare cpm of enzyme samples to cpm of control samples that contain no enzyme (background control).

Setting [1] is: read-out: YES1 Inhibition (IC50).
Where [2] appears, read: read-out: FES Inhibition (IC50).
Where [3] appears, read: kinase panel, 10 μM ATP, read-out: GSK3β IC50.
Where [4] appears, read: read-out: GSK3B Inhibition (IC50).

In general, IC50 refers to the point on the concentration scale where inhibition reaches its midpoint.

The structures appear in SMILES notation. Counter-ions that a name gives are not always drawn. Like-named read-outs stand apart in the source and are kept apart here.

T2 sequence (P07332 whole entry): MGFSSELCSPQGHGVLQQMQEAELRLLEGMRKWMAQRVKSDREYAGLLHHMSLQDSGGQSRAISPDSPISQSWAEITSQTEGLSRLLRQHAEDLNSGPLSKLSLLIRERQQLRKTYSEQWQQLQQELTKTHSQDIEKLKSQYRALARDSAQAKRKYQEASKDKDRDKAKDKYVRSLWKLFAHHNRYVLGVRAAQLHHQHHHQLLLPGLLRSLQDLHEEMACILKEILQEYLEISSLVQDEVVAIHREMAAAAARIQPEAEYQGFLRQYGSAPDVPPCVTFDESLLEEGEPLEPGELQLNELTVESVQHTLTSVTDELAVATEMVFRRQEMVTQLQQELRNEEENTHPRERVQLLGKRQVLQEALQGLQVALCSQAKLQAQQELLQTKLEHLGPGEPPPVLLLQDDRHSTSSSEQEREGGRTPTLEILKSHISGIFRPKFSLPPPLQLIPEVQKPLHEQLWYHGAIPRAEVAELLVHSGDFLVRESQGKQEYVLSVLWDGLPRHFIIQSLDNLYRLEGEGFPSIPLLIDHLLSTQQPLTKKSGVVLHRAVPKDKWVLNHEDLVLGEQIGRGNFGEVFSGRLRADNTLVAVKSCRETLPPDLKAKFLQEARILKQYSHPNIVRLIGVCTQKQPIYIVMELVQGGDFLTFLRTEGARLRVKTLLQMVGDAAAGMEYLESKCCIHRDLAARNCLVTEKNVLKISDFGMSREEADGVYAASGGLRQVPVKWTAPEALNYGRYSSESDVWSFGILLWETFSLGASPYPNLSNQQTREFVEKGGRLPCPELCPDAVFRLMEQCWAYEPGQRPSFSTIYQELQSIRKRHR
Sequence of Cdk7 (P50613 whole entry, species assumed): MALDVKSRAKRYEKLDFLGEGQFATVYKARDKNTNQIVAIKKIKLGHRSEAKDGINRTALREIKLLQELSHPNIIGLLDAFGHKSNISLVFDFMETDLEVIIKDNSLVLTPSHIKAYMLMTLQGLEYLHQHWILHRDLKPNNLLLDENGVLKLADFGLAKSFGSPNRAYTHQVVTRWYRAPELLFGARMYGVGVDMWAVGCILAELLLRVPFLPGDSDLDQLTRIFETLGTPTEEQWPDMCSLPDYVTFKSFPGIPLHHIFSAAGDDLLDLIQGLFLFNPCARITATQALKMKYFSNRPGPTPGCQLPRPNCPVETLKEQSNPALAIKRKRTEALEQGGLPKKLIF
Sequence of Cdk7 (P51946 whole entry partner, species assumed): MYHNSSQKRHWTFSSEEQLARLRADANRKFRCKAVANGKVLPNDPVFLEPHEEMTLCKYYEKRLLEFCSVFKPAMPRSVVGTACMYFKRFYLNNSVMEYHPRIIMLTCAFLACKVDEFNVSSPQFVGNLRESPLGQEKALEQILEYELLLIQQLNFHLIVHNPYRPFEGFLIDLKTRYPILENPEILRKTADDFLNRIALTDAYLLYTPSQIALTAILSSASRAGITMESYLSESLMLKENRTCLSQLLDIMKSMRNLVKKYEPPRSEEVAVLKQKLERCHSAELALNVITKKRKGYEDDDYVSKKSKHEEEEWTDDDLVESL
Sequence of Cdk7 (P51948 whole entry partner, species assumed): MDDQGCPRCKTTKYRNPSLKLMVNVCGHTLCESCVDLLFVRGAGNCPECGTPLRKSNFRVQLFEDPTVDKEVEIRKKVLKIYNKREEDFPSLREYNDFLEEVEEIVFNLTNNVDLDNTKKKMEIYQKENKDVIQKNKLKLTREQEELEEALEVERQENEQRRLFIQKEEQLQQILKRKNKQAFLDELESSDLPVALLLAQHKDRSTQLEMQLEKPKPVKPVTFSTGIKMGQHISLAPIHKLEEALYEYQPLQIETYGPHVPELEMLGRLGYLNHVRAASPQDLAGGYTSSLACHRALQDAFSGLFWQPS

On to `COCCN1CCN(Cc2ccc(-c3n[nH]c4c3C(=O)c3c(NC(=O)NN5CCOCC5)cccc3-4)cc2)CC1` [Compound B16, N-[3-(4-{[4-(2-methoxyethyl)piperazinyl]methyl}phenyl)-4-oxoindeno[2,3-d]pyrazol-5-yl](morpholin-4-ylamino)carboxamide dihydrochloride], for which the IC50 against Cdk7 was under 50 nM; in the assay with DNA replication, 10 nM; at Yes (kinase panel, 10 μM ATP, read-out: Yes IC50), under 100 nM; on Yes (setting [1]) it was under 50 nM; on Fes (kinase panel, read-out: Fes IC50), under 100 nM; at Fes (setting [2]), under 100 nM. The IC50 at GSK3β (setting [3]) is under 100 nM; at GSK3β (setting [4]) it was under 5 nM.
As for `CC(C)N1CCN(C(=O)COc2ccc(-c3n[nH]c4c3C(=O)c3c(NC(=O)NN5CCOCC5)cccc3-4)cc2)CC1` [Compound A37], the 50% inhibitory concentration (IC50) against Cdk7 was under 500 nM; in the assay on DNA replication it was 16 nM; at Yes (setting [1]) it was under 50 nM; at Fes (setting [2]) it was under 100 nM; on GSK3β (setting [3]), under 3 nM; on GSK3β (setting [4]), under 5 nM.
